Source: US7541368B2, “Pyrazoles as inhibitors of tumor necrosis factor” (Aventis Pharmaceuticals Inc., priority 2003, dated 2009)

What was measured:
[1] = target: T1, Inactive N-terminal His6 tagged murine P38 (Mus musculus, UniProt P47811); experiment: p38 cascade assay (HTRF; inactive p38 activated by MKK-6, ATF-2 phosphorylation); type: biochemical; details: inactive p38 preincubated with compound, then MKK-6, ATF-2, ATP; read-out: 50% inhibition in the p38 cascade assay at concentrations within the range
T1 construct: His6 (N); made in house
Method: The homogeneous time resolved fluorescence method (HTRF) assay measured the phosphorylation of human activating transcription factor (ATF)-2 protein by P38 following activation by MKK-6 and was run in A384 well plate format. […] MBP-tagged mouse MKK-6 (final concentration 50 nM), GST-tagged ATF-2 (fmal concentration 200 nM) and ATP (final concentration 50 μM) were then added and the incubation continued for 90 min. p38, MKK-6 and ATF-2 were prepared in the Protein Production Group, Aventis Pharmaceuticals. XL665 labeled anti-GST antibody (Cis Bio International) and cryptate labeled anti-pbospho-ATF2 antibody (Cis Bio International) were then added to generate the specific signal proportional to the phosphorylation of the substrate. The close proximity of XL665 labeled anti-GST antibody/phosphorylated GST-ATF2 complex and the cryptate labeled anti-phospho-ATF2 antibody results in a fluorescence transfer from cryptate to XL665. The resulting fluorescence signal was than read on a LJL Acquest set at multi-method mode using a fluorescence filter set (E=360 nm, Em=615/665 nm) with UV dichroic mirror (Integration time: 300000 μs). The results are reported as IC50 values. Compounds were tested over the concentration range of 3×10^−10M to 3×10^−5M.

[2] = tested on: TNF-alpha release in THP-1 cells; experiment: LPS-induced TNF-alpha release in THP-1 cells; type: cell-based; details: Homo sapiens, THP-1, LPS-stimulated THP-1 cells; read-out: 50% inhibition in the LPS-induced TNF-alpha release in THP-1 cells assay at concentrations within the range
Method in brief: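 TNF-alpha in supernatants was quantified by sandwich ELISA against a log/log recombinant standard curve (0.125-16 ng/ml). Before this, THP-1 cells (1×10^6 cells/ml, serum-reduced) received compound at 1×10^−9 to 1×10^−6 M in 0.3% DMSO for 1 h, then LPS 20 μg/ml for 18 h.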

T1 sequence (P47811 whole entry): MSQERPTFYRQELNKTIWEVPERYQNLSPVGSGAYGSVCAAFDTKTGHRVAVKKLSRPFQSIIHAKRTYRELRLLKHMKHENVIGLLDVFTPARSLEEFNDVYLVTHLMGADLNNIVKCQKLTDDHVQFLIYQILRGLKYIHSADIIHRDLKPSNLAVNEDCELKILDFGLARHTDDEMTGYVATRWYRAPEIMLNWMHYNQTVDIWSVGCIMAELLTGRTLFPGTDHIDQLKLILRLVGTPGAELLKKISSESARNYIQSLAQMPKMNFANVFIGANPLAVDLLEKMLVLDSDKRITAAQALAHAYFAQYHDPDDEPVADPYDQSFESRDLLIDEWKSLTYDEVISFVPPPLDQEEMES

| Structure (SMILES) | IC50 [1] [nM] | IC50 [2] [nM] |
| --- | --- | --- |
| Cc1ccc(-n2nc(C(C)(C)C)cc2NC(=O)Nc2cccc(CC3CCN(C(=O)C4(C)CC4)CC3)c2)cc1 [Compound A16, 1-(5-tert-Butyl-2-p-tolyl-2H-pyrazol-3-yl)-3-{3-[1-(1-methyl-cyclopropanecarbonyl)-piperidin-4-ylmethyl]-phenyl}-urea] | 10 to 100 | 10 to 500 |
| Cc1ccc(-n2nc(C(C)(C)C)cc2NC(=O)Nc2cccc(CC3CCN(C(=O)c4sc(C)nc4C)CC3)c2)cc1 [Compound A28, 1-(5-tert-Butyl-2-p-tolyl-2H-pyrazol-3-yl)-3-{3-[1-(2,4-dimethyl-thiazole-5-carbonyl)-piperidin-4-ylmethyl]-phenyl}-urea] | 10 to 100 | 10 to 500 |
| Cc1ccc(-n2nc(C(C)(C)C)cc2NC(=O)Nc2cccc(CC3CCN(C(=O)c4csc(-c5cccnc5)n4)CC3)c2)cc1 [Compound A32, 1-(5-tert-Butyl-2-p-tolyl-2H-pyrazol-3-yl)-3-{3-[1-(2-pyridin-3-yl-thiazole-4-carbonyl)-piperidin-4-ylmethyl]-phenyl}-urea] | 10 to 100 | 10 to 500 |
| Cc1ccc(-n2nc(C(C)(C)C)cc2NC(=O)Nc2cccc(CC3CCN(C(=O)c4csc(-c5ccncc5)n4)CC3)c2)cc1 [Compound A34, 1-(5-tert-Butyl-2-p-tolyl-2H-pyrazol-3-yl)-3-{3-[1-(2-pyridin-4-yl-thiazole-4-carbonyl)-piperidin-4-ylmethyl]-phenyl}-urea] | 10 to 100 | 10 to 500 |
| Cc1ccc(-n2nc(C(C)(C)C)cc2NC(=O)Nc2cccc(CC3CCN(C(=O)c4cccnc4Cl)CC3)c2)cc1 [Compound A42, 1-(5-tert-Butyl-2-p-tolyl-2H-pyrazol-3-yl)-3-{3-[1-(2-chloro-pyridine-3-carbonyl)-piperidin-4-ylmethyl]-phenyl}-urea] | 10 to 100 | 10 to 500 |
| Cc1ccc(-n2nc(C(C)(C)C)cc2NC(=O)Nc2cccc(CC3CCN(C(=O)Cc4ccccc4F)CC3)c2)cc1 [Compound A43, 1-(5-tert-Butyl-2-p-tolyl-2H-pyrazol-3-yl)-3-(3-{1-[2-(2-fluoro-phenyl)-acetyl]-piperidin-4-ylmethyl}-phenyl)-urea] | 10 to 100 | 10 to 500 |
| Cc1ccc(-n2nc(C(C)(C)C)cc2NC(=O)Nc2cccc(CC3CCN(C(=O)c4cccnc4C)CC3)c2)cc1 [Compound A59, 1-(5-tert-Butyl-2-p-tolyl-2H-pyrazol-3-yl)-3-{3-[1-(2-methyl-pyridine-3-carbonyl)-piperidin-4-ylmethyl]-phenyl}-urea] | 10 to 100 | 10 to 500 |
| CC(=O)Nc1cccc(C(=O)N2CCC(Cc3cccc(NC(=O)Nc4cc(C(C)(C)C)nn4-c4ccc(C)cc4)c3)CC2)c1 [Compound A88, N-[3-(4-{3-[3-(5-tert-Butyl-2-p-tolyl-2H-pyrazol-3-yl)-ureido]-benzyl}-piperidine-1-carbonyl)-phenyl]-acetamide] | 10 to 100 | 10 to 500 |
| COc1ccc(C(=O)N2CCC(Cc3cccc(NC(=O)Nc4cc(C(C)(C)C)nn4-c4ccc(C)cc4)c3)CC2)c(C)c1 [Compound A120, 1-(5-tert-Butyl-2-p-tolyl-2H-pyrazol-3-yl)-3-{3-[1-(4-methoxy-2-methyl-benzoyl)-piperidin-4-ylmethyl]-phenyl}-urea] | 10 to 100 | 10 to 500 |
| COC(=O)CCC(=O)N1CCC(Cc2cccc(NC(=O)Nc3cc(C(C)(C)C)nn3-c3ccc(C)cc3)c2)CC1 [Compound A174, 4-(4-{3-[3-(5-tert-Butyl-2-p-tolyl-2H-pyrazol-3-yl)-ureido]-benzyl}-piperidin-1-yl)-4-oxo-butyric acid methyl ester] | 10 to 100 | – |
| Cc1ccc(-n2nc(C(C)(C)C)cc2NC(=O)Nc2ccc(CC3CCN(C(=O)c4ccc(O)nc4)CC3)cc2)cc1 [Compound A333, 1-(5-tert-Butyl-2-p-tolyl-2H-pyrazol-3-yl)-3-{4-[1-(6-hydroxy-pyridine-3-carbonyl)-piperidin-4-ylmethyl]-phenyl}-urea] | 10 to 100 | – |
| Cc1ccc(-n2nc(C(C)(C)C)cc2NC(=O)Nc2ccc(CC3CCN(C(=O)c4coc5c4C(=O)CCC5)CC3)cc2)cc1 [Compound A342, 1-(5-tert-Butyl-2-p-tolyl-2H-pyrazol-3-yl)-3-{4-[1-(4-oxo-4,5,6,7-tetrahydro-benzofuran-3-carbonyl)-piperidin-4-ylmethyl]-phenyl}-urea] | 10 to 100 | – |
| CC(=O)Nc1cccc(C(=O)N2C3CCC2CC(Cc2cccc(NC(=O)Nc4cc(C(C)(C)C)nn4-c4ccc(C)cc4)c2)C3)c1 (stereo not drawn) [Compound A707, N-[3-(3-{3-[3-(5-tert-Butyl-2-p-tolyl-2H-pyrazol-3-yl)-ureido]-benzyl}-8-aza-bicyclo[3.2.1]octane-8-carbonyl)-phenyl]-acetamide] | 10 to 100 | – |
| Cc1ccc(-n2nc(C(C)(C)C)cc2NC(=O)Nc2cccc(CC3CC4CCC(C3)N4S(=O)(=O)c3ccc4c(c3)OCCN4C)c2)cc1 (stereo not drawn) [Compound A880, 1-(5-tert-Butyl-2-p-tolyl-2H-pyrazol-3-yl)-3-{3-[8-(4-methyl-3,4-dihydro-2H-benzo[1,4]oxazine-7-sulfonyl)-8-aza-bicyclo[3.2.1]oct-3-ylmethyl]-phenyl}-urea] | 10 to 100 | – |
| COc1ccc(OC(=O)N2CCC(Cc3ccc(NC(=O)Nc4cc(C(C)(C)C)nn4-c4ccc(C)cc4)cc3)CC2)cc1 [Compound A1605, 4-{4-[3-(5-tert-Butyl-2-p-tolyl-2H-pyrazol-3-yl)-ureido]-benzyl}-piperidine-1-carboxylic acid 4-methoxy-phenyl ester] | 10 to 100 | – |
| CC(=O)N1CCC(Cc2ccc(NC(=O)Nc3cc(C(C)(C)C)nn3-c3ccc(C)cc3)cc2)CC1 [Compound A1637, 1-[4-(1-acetyl-piperidin-4-ylmethyl)-phenyl]-3-(5-tert-butyl-2-p-tolyl-2H-pyrazol-3-yl)-urea] | 10 to 100 | – |
| Cc1ccc(-n2nc(C(C)(C)C)cc2NC(=O)Nc2cccc(CC3CCN(C(=O)c4cc5ccccc5o4)CC3)c2)cc1 [Compound A1638, 1-{3-[1-(benzofuran-2-carbonyl)-piperidin-4-ylmethyl]-phenyl}-3-(5-tert-butyl-2-p-tolyl-2H-pyrazol-3-yl)-urea] | 10 to 100 | – |
| Cc1ccc(-n2nc(C(C)(C)C)cc2NC(=O)Nc2cccc(CC3CCN(C(=O)C4CCNCC4)CC3)c2)cc1 [Compound A1639, 1-(5-tert-Butyl-2-p-tolyl-2H-pyrazol-3-yl)-3-{3-[1-(piperidine-4-carbonyl)-piperidin-4-ylmethyl]-phenyl}-urea] | 10 to 100 | – |
| Cc1ccc(-n2nc(C(C)(C)C)cc2NC(=O)Nc2ccc(CC3CC4CCC(C3)N4C(=O)c3cccc(C)n3)cc2)cc1 (stereo not drawn) [Compound A1640, 1-(5-tert-Butyl-2-p-tolyl-2H-pyrazol-3-yl)-3-{4-[8-(6-methyl-pyridine-2-carbonyl)-8-aza-bicyclo[3.2.1]oct-3-ylmethyl]-phenyl}-urea] | 10 to 100 | – |
| CC(=O)C(=CC(=O)c1ccccc1)NC(=O)N1CCC(Cc2ccc(NC(=O)Nc3cc(C(C)(C)C)nn3-c3ccc(C)cc3)cc2)CC1 [Compound A1641, 4-{4-[3-(5-tert-Butyl-2-p-tolyl-2H-pyrazol-3-yl)-ureido]-benzyl}-piperidine-1-carboxylic acid (1-acetyl-3-oxo-3-phenyl-propenyl)-amide] | 10 to 100 | – |
| Cc1ccc(-n2nc(C(C)(C)C)cc2NC(=O)Nc2ccc(CC3CCN(C(=O)C4=Cc5occc5CC4)CC3)cc2)cc1 [Compound A1642, 1-(5-tert-Butyl-2-p-tolyl-2H-pyrazol-3-yl)-3-{4-[1-(4,5-dihydro-benzofuran-6-carbonyl)-piperidin-4-ylmethyl]-phenyl}-urea] | – | 10 to 500 |
| Cc1ccc(-n2nc(C(C)(C)C)cc2NC(=O)Nc2ccc(CC3CCN(C(=O)O[C@@H]4C[C@H](C)CC[C@H]4C(C)C)CC3)cc2)cc1 [Compound A1644, 4-{4-[3-(5-tert-Butyl-2-p-tolyl-2H-pyrazol-3-yl)-ureido]-benzyl}-piperidin-1-carboxylic acid (1R,2S,5R)-2-isopropyl-5-methyl-cyclohexyl ester] | 10 to 100 | – |
| COc1ccc(OC)c(CC(=O)N2CCC(Cc3cccc(NC(=O)Nc4cc(C(C)(C)C)nn4-c4ccc(C)cc4)c3)CC2)c1 [Compound A1646, 1-(5-tert-Butyl-2-p-tolyl-2H-pyrazol-3-yl)-3-(3-{1-[2-(2,5-dimethoxy-phenyl)-acetyl]-piperidin-4-ylmethyl}-phenyl)-urea] | – | 10 to 500 |
| COc1ccc(OC)c(C(=O)N2C3CCC2CC(Cc2ccc(NC(=O)Nc4cc(C(C)(C)C)nn4-c4ccc(C)cc4)cc2)C3)c1 (stereo not drawn) [Compound A1647, 1-(5-tert-Butyl-2-p-tolyl-2H-pyrazol-3-yl)-3-{4-[8-(2,5-dimethoxy-benzoyl)-8-aza-bicyclo[3.2.1]oct-3-ylmethyl]-phenyl}-urea] | – | 10 to 500 |
